# Data: patent US20240207203A1, “NOVEL USE” (DSM IP Assets B.V., priority 2021, published 2024)
# Assays:
# [1] = test system: methane production in rumen liquor; experiment: In vitro test for methane production (modified Hohenheim Forage value Test, HFT); assay type: cell-based; settings: TMR feed, 8 h at 39° C., average of four to eight experiments
# Experimental: In vitro test for methane production: A modified version of the “Hohenheim Forage value Test (HFT)” was used for testing the effect of specific compounds on the rumen functions mimicked by this in-vitro system.
# Principle: Feed is gadded into a syringe with a composition of rumen liquor and an appropriate mixture of buffers. The solution is incubated at 39° C. After 8 hours the quantity (and composition) of gas phase produced is measured and put into a formula for conversion.
# Sample weighing: The feed stuff (i.e. TMR (44% concentrate, 6% hay, 37% maize silage and 13% grass silage) is sieved to 1 mm and weighed exactly into 64 syringes. 4 of these syringes are the substrate controls, which display the gas production without the effect of the tested compounds. 4 other syringes are positive control (3-NOP, 10 µM). When needed, 4 syringes contain a carrier control (if the test compounds need a carrier). The remaining syringes contain the test substances, by groups of 4 syringes, in the amounts as indicated in table 1.
# Extraction of the rumen liquor: 750 ml of rumen liquor are added to approximately 1,400 ml of medium solution under continued agitation and CO2-gassing.
# Filling the syringes, incubation and determining gas volumes and VFA values: The diluted rumen fluid (24 ml) is added to the glass syringe. The syringes are then incubated for 8 hours at 39° C. under gentle agitation. After 8 hours, the volume of gas produced is measured, and the percentage of methane in the gas phase is determined by gas chromatography.
# The food fermented was artificial TMR (44% concentrate, 6% hay, 37% maize silage and 13% grass silage). Gossypol was obtained from Sigma-Aldrich (G8761), and used at a concentration as outlined in table 1.3-Nitrooxy-propanol (3-NOP) was used at the concentration as outlined in table 1. The respective in vitro data was linked to dosage regimes correlating to the same methane reduction in vivo.
# [2] = test system: methane production in ruminants; settings: reported in WO2012/084629; cited from earlier work
smiles,measurement,setting,value
"O=[N+]([O-])OCCCO [3-NOP, 3-Nitrooxypropanol]","Total methane change, found",[1]; single substance at 2.5 μM,−12 % vs. control
same,"Total methane change, found",[1]; single substance at 5 μM,−54 % vs. control
same,"Total methane change, found",[1]; single substance at 10 μM,−98 % vs. control
same,Reduction of methane production in ruminants (in words),[2],significantly reduce the methane production
"Cc1cc2c(C(C)C)c(O)c(O)c(C=O)c2c(O)c1-c1c(C)cc2c(C(C)C)c(O)c(O)c(C=O)c2c1O [G, Gossypol]","Total methane change, found",[1]; single substance at 5 μM,−1 % vs. control
same,"Total methane change, found",[1]; single substance at 10 μM,−11 % vs. control
same,"Total methane change, found",[1]; single substance at 20 μM,−15 % vs. control
same,"Total methane change, found",[1]; single substance at 100 μM,−69 % vs. control
